Assay results as given in publication PMC4760274, “Elongation factor 2 kinase promotes cell survival by inhibiting protein synthesis without inducing autophagy” (Cellular Signalling, 2016).

Legend:
P-eEF2 in A549 cells = experiment: eEF2 phosphorylation in A549 cells (western blot); assay type: cell-based, human; details: 16 h, AZD8055 1 μM
Experimental: (§1) After treatment, cells were lysed in ice-cold lysis buffer containing 1% (v/v) Triton X-100 (215680010, Acros Organics), 50 mM Tris (T6066-1KG, Sigma-Aldrich)–HCl (258148-2.5 L, Sigma-Aldrich) pH 7.4, 50 mM NaCl (BP358-212, Fisher Scientific), 0.2 mM EDTA (BP120-500, Fisher Scientific), 0.2 mM EGTA (E1102, Melford), 50 mM β-glycerophosphate (G9422, Sigma-Aldrich), 1 mM Na3VO4 (S6508, Sigma-Aldrich), 15 mM β-mercaptoethanol (125472500, Acros Organics) and 1 × protease inhibitor cocktail (5056489001, Roche). Lysates were spun at 16,000 × g for 10 min at 4 °C; the supernatants were kept and total protein concentration was quantified by Bradford assay following the manufacturer's instructions.
(§2) These procedures were performed as described previously.
Cells were then treated with 10 mM 2-deoxyglucose (2DG), rapamycin (100 nM), AZD8055 (1 μM) or MG132 (10 μM) for 16 h. Cells were then lysed and samples containing equal amounts of protein were analysed by western blot using the indicated antibodies. Values given below each lane show quantitation of the signal for LC3II, corrected for the actin signal from multiple experiments as in (A) expressed as LC3II normalized to actin, mean ± SEM (control cells without treatment = 1; n = 3). (B) A549 cells were cultured as in (A) to induce eEF2K knockdown. A549 cells were transiently transfected with the GST-BHMT construct and maintained in full media in the presence or absence of AZD8055 (1 μM) for 16 h, in the presence of leupeptin and E64d. GST-BHMT was precipitated with glutathione agarose from the whole cell extracts (bottom panel). Values given below show the quantitation of data from multiple experiments as in (B) expressed as the level of BHMT fragment normalized to the control without IPTG, mean ± SEM (control cells without treatment = 1; n = 3). Values given below each lane show quantitation of the signal for P-eEF2, corrected for the eEF2 signal from multiple experiments as in (B) expressed as P-eEF2 normalized to eEF2, mean ± SEM (control cells without treatment = 1; n = 3). (C) Cells were treated as described in Supplemental Fig. S3, visualized by confocal microscopy and the rate of autophagosome–lysosome fusion was measured according to green/red fluorescence ratio which reflect the percentage of unfused LC3. Scale bar = 20 μm. (D) Data quantification of C, data are presented as means ± SEM. (n = 5) ***P < 0.001, obtained by two-way ANOVA (Dunnett's test). (E) Untransfected A549 cells were treated with AZD8055 and BafA1 as described in A, cell lysates were collected at T0, 1 and 3 h for immunoblotting analysis. Values given below each lane show quantitation of the signal for LC3II, corrected for the LC3I signal from multiple experiments as in (E) expressed as LC3II normalized to LC3I, mean ± SEM (control cells without treatment = 1; n = 3).

LC3II in A549 cells = experiment: LC3 modification in A549 cells (western blot); assay type: cell-based, human; details: untransfected A549; AZD8055 1 μM; Fig. 2E
Experimental: as §1, §2
Cells were then treated with 10 mM 2-deoxyglucose (2DG), rapamycin (100 nM), AZD8055 (1 μM) or MG132 (10 μM) for 16 h. Cells were then lysed and samples containing equal amounts of protein were analysed by western blot using the indicated antibodies. Values given below each lane show quantitation of the signal for LC3II, corrected for the actin signal from multiple experiments as in (A) expressed as LC3II normalized to actin, mean ± SEM (control cells without treatment = 1; n = 3). (B) A549 cells were cultured as in (A) to induce eEF2K knockdown. […] (D) Data quantification of C, data are presented as means ± SEM. […]

[1] = system: GST-BHMT cleavage (autophagic flux) in A549 cells; experiment: GST-BHMT cleavage assay in A549 cells; assay type: cell-based, human; details: AZD8055 1 μM, 16 h, Fig. 2B
Experimental: Cells were lysed as above. […] The precipitated GST-BHMT was washed three times in the ice cold lysis buffer. Precipitates were then boiled in SDS-PAGE sample buffer, resolved by SDS-PAGE and analysed by western blotting using anti-GST antibody.
Cells were then treated with 10 mM 2-deoxyglucose (2DG), rapamycin (100 nM), AZD8055 (1 μM) or MG132 (10 μM) for 16 h. Cells were then lysed and samples containing equal amounts of protein were analysed by western blot using the indicated antibodies. […] (B) A549 cells were cultured as in (A) to induce eEF2K knockdown. A549 cells were transiently transfected with the GST-BHMT construct and maintained in full media in the presence or absence of AZD8055 (1 μM) for 16 h, in the presence of leupeptin and E64d. GST-BHMT was precipitated with glutathione agarose from the whole cell extracts (bottom panel). […] (E) Untransfected A549 cells were treated with AZD8055 and BafA1 as described in A, cell lysates were collected at T0, 1 and 3 h for immunoblotting analysis.

[2] = system: autolysosome formation in A549 cells; experiment: autophagic flux analysis with mCherry-EGFP-LC3B in A549 cells; assay type: cell-based, human; details: AZD8055 1 μM, after release from BafA1, Fig. 2C, D
Experimental: A549 cells were transfected with a vector encoding mCherry-EGFP-LC3B, a tandem fluorescent-tagged LC3 (a kind gift from Dr. Terje Johansen, Biochemistry Department, Institute of Medical Biology, University of Tromsø, Norway), using lipofectamine 3000 (L3000001, Life technologies) following manufacturer's instructions. After treatment cells were washed twice in phosphate buffered saline (PBS, 18912-014, Gibco) and then fixed in 4% formaldehyde (F8775, Sigma-Aldrich) for 15 min. Fixed cells were washed thrice in PBS and permeabilized with 0.1% Triton-X 100 for 5 min. Cells were then again washed thrice in PBS and mounted in ProLong® Gold Antifade Mountant (P36935, Life technologies). Cells were visualized using Leica TCS SP8X/MP microscope equipped with a tuneable white light laser using a 40 × oil immersion objective lens (NA = 1.30) numerical aperture objective. Green/red fluorescence ratio (GFP loss upon autolysosome formation) was measured using the Leica Application Suite X (LAS X) software (version 1.1.0).
We also examined the progression of autolysosome formation using a tandem fluorescently-tagged LC3 (mCherry-EGFP-LC3B) which allowed us to determine autophagosome and lysosome fusion by evaluating loss of GFP fluorescence. Green (GFP) but not red (mCherry) fluorescence is quenched by protonation in response to acidified intra-lysosomal pH upon autolysosome fusion. […]

P-eEF2 in TSC2−/− MEFs = experiment: eEF2 phosphorylation in TSC2−/− MEFs (western blot); assay type: cell-based, mouse; details: TSC2−/− cells starved of glucose; rapamycin 20 nM; Fig. 4A
Experimental: as §1, with “instructions. […]” for “instructions.”
Fig. 4 eEF2K aids the survival of TSC2^−/− cells under glucose-starved conditions. […] Cells were then lysed and samples containing equal amounts of protein were analysed by western blot using the indicated antibodies. Values given below each lane show quantitation of the signal for LC3II, corrected for the actin signal or P-eEF2, corrected for the eEF2 signal from multiple experiments as in (A), mean ± SEM (control cells without treatment = 1; n = 3). […] The − signs of the Glucose row are barely visible, so the condition given for each lane is my best reading. / Panel A: which number belongs to which lane or group (Con, JAN-613, JAN-384) is judged from horizontal position only. […]

TSC2−/− MEFs = experiment: caspase 3/7 assay in TSC2−/− MEFs; assay type: cell-based, mouse; details: TSC2−/− cells; rapamycin 20 nM; 48 h; Fig. 4B
Experimental: Caspase 3/7 assays (G8090, Promega) were performed according to the manufacturer's instructions. Briefly, 10,000 cells/well were plated overnight in a 96-well plate. Cells were treated as described in the figure legends for the indicated time period. To measure caspase 3/7 activity, 50 μL of caspase Glo 3/7 reagent was added to each well for 2 h with constant shaking at room temperature. Luminescence was measured using a BMG Labtech FLUOstar Optimi plate reader. Cytotoxicity was evaluated by CellTox Green® cytotoxicity assay (Promega). Briefly, 10,000 cells/well were plated overnight in a 96-well plate. Cells were treated as described in the figure legends for the indicated time period. Fluorescence was measured at 485–500 nmEx/520–530 nmEm using a BMG Labtech FLUOstar Optimi plate reader.
Fig. 4 eEF2K aids the survival of TSC2^−/− cells under glucose-starved conditions. […] Cells were then lysed and samples containing equal amounts of protein were analysed by western blot using the indicated antibodies. Values given below each lane show quantitation of the signal for LC3II, corrected for the actin signal or P-eEF2, corrected for the eEF2 signal from multiple experiments as in (A), mean ± SEM (control cells without treatment = 1; n = 3). (B) Cells were treated for 48 h as described in (A), except that they were processed for caspase 3/7 assay. […]

[3] = 2DG 10 mM, rapamycin 100 nM, MG132 10 μM, Fig. 2A

Structure (SMILES)	phosphorylation of eEF2 (P-eEF2 in A549 cells; [3])	phosphorylation of eEF2 (P-eEF2 in A549 cells; Fig. 2B)	LC3II/I ratio (LC3II in A549 cells)	cleavage of GST-BHMT [1]	green/red ratio (mCherry-EGFP-LC3B) in comparison to control cells [2]	eEF2 phosphorylation (P-eEF2 in TSC2−/− MEFs)	adverse effect of glucose starvation (caspase 3/7 activity) countered (TSC2−/− MEFs)	caspase activity in control conditions (TSC2−/− MEFs)
COc1ccc(-c2ccc3c(N4CCOC[C@@H]4C)nc(N4CCOC[C@@H]4C)nc3n2)cc1CO [AZD8055]	induced the phosphorylation of eEF2	marked increase	further increase	marked increase	remained low	–	–	–
CO[C@H]1C[C@@H]2CC[C@@H](C)[C@@](O)(O2)C(=O)C(=O)N2CCCC[C@H]2C(=O)O[C@H]([C@H](C)C[C@@H]2CC[C@@H](O)[C@H](OC)C2)CC(=O)[C@H](C)/C=C(\C)[C@@H](O)[C@@H](OC)C(=O)[C@H](C)C[C@H](C)/C=C/C=C/C=C/1C [rapamycin]	induced the phosphorylation of eEF2	–	–	–	–	large increase	fully	decreased
